Measured values published in patent US10844058B2, “Valbenazine salts and polymorphs thereof” (Neurocrine Biosciences, Inc., priority 2015, dated 2020).
Counter-ions that a name gives are not always drawn. Like-named read-outs stand apart in the source and are kept apart here.

Experiments:
Format in all cases: physicochemical
[1] = Gravimetric vapour sorption (GVS); conditions: for Stability to humidity GVS uptake: 25° C.; for XRPD pattern following the adsorption/desorption analysis: after GVS
Procedure: The Gravimetric sorption isotherms were obtained using a Hiden IGASorp moisture sorption analyser, controlled by CFRSorp software. The sample temperature was maintained at 25° C. by a Huber re-circulating water bath. The humidity was controlled by mixing streams of dry and wet nitrogen, with a total flow rate of 250 ml/min. The relative humidity (RH) was measured by a calibrated Vaisala RH probe (dynamic range of 0-95% RH), located near the sample. The weight change, (mass relaxation) of the sample as a function of % RH was constantly monitored by the microbalance (accuracy 0.001 mg). Typically 10-20 mg of sample was placed in a tared mesh stainless steel basket at room temperature. The sample was loaded and unloaded at 40% RH and 25° C. (typical room conditions). The standard isotherm was performed at 25° C. at 10% RH intervals over a 0-90% RH range.

[2] = Thermodynamic aqueous solubility; conditions: for solubility at 24 h: water, 25 °C, thermodynamic from solid
Procedure: The suspension was equilibrated at 25° C. for 24 hours then the pH was measured. The suspension was then filtered through a glass fibre C filter. […] Different volumes of the standard, diluted and undiluted sample solutions were injected.

[3] = Stability to humidity on storage (form by XRPD)
[4] = Phase equilibration between Form I, II and IV of Formula I (Example 12); conditions: slurried 13 days
Procedure: About 10 mg of the mixture was then slurried in 200 μl of pre-saturated solvent at the desired temperatures for 13 days. The solids were then quickly filtered and analyzed by XRPD.

[5] = Form conversion on heating (VT-XRPD)
Source text: It is not clear whether a form change accompanies this loss of water, as the water is readily taken back up when the sample is returned to ambient RH.

[6] = Phase equilibration between Form I and IV of Formula I (Example 13)
Procedure: The suspensions of Form and IV from the equilibration studies were taken to 25° C.

[7] = relative humidity from about 0% to about 90%
[8] = relative humidity from about 0% to about 95%, di(4-methylbenzenesulfonate)

COc1cc2c(cc1OC)[C@H]1C[C@@H](OC(=O)[C@@H](N)C(C)C)[C@H](CC(C)C)CN1CC2 [Form I of Formula II, (S)-(2R,3R,11bR)-3-isobutyl-9,10-dimethoxy-2,3,4,6,7,11b-hexahydro-1H-pyrido[2,1-a]isoquinolin-2-yl 2-amino-3-methylbutanoate dihydrochloride]
Stability to humidity GVS uptake [1]: 15.2%
XRPD pattern following the adsorption/desorption analysis ([1]; dihydrochloride): substantially changed
GVS mass increase [1, 7]: about 14%
solubility at 24 h ([2]; pH 4.1, water, at pH 4.1, read-out: Aqueous solubility): > 90 mg/mL
solubility at 24 h ([2]; 25° C., 24 hours, at the pH of the next column, read-out: Aqueous solubility mg/mL free form): > 90 mg/mL
Form after storage ([3]; 25° C./92% RH for seven days): change of form
Form after storage ([3]; 40° C./75% RH for seven days): change of form

COc1cc2c(cc1OC)C1CC(OC(=O)C(N)C(C)C)C(CC(C)C)CN1CC2.Cc1ccc(S(=O)(=O)O)cc1.Cc1ccc(S(=O)(=O)O)cc1 (stereo not drawn) [Form I, II, and IV]
Form found by XRPD after equilibration ([4]; Acetonitrile/2% water, 25° C.): Form I
Form found by XRPD after equilibration ([4]; Acetonitrile/2% water, 50° C.): Form I
Form found by XRPD after equilibration ([4]; Acetonitrile/5% water, 5° C.): Form IV
Form found by XRPD after equilibration ([4]; Acetonitrile/5% water, 25° C.): Form I
Form found by XRPD after equilibration ([4]; Acetonitrile/5% water, 50° C.): Form I
Form found by XRPD after equilibration ([4]; Acetonitrile/10% water, 5° C.): Form IV
Form found by XRPD after equilibration ([4]; Acetonitrile/10% water, 25° C.): Form I
Form found by XRPD after equilibration ([4]; Acetonitrile/10% water, 50° C.): Form I
Form found by XRPD after equilibration ([4]; Acetonitrile, 5° C.): Form I
Form found by XRPD after equilibration ([4]; Acetonitrile, 25° C.): Form I
Form found by XRPD after equilibration ([4]; Acetonitrile, 50° C.): Form I

COc1cc2c(cc1OC)[C@H]1C[C@@H](OC(=O)[C@@H](N)C(C)C)[C@H](CC(C)C)CN1CC2 [Form II of Formula II, (S)-(2R,3R,11bR)-3-isobutyl-9,10-dimethoxy-2,3,4,6,7,11b-hexahydro-1H-pyrido[2,1-a]isoquinolin-2-yl 2-amino-3-methylbutanoate dihydrochloride]
GVS mass loss ([1]; RH lowered to 0%): ca. 12%
Aqueous solubility ([2]; at pH 4.1, dihydrochloride): > 67 mg/mL free form equivalent
Form conversion on heating (VT-XRPD) ([5]; heating): no conversion to Form I on heating
Temperature at which the material becomes amorphous (VT-XRPD) ([5]; no subsequent crystallization upon cooling): above 160 °C

COc1cc2c(cc1OC)[C@H]1C[C@@H](OC(=O)[C@@H](N)C(C)C)[C@H](CC(C)C)CN1CC2.Cc1ccc(S(=O)(=O)O)cc1.Cc1ccc(S(=O)(=O)O)cc1 [Form II, (S)-(2R,3R,11bR)-3-isobutyl-9,10-dimethoxy-2,3,4,6,7,11b-hexahydro-1H-pyrido[2,1-a]isoquinolin-2-yl 2-amino-3-methylbutanoate di(4-methylbenzenesulfonate)]
Hygroscopicity ([1]; GVS): substantially non-hygroscopic
Stability with respect to humidity ([1]; GVS): stable with respect to humidity
XRPD pattern following the adsorption/desorption analysis ([1]; di(4-methylbenzenesulfonate)): substantially unchanged
GVS mass increase [1, 8]: about 0.5%
solubility at 24 h ([2]; pH 5.1, water, at pH 5.1, read-out: aqueous solubility): ~18.5 mg/mL

COc1cc2c(cc1OC)[C@H]1C[C@@H](OC(=O)[C@@H](N)C(C)C)[C@H](CC(C)C)CN1CC2.Cc1ccc(S(=O)(=O)O)cc1.Cc1ccc(S(=O)(=O)O)cc1 [Form IV, (S)-(2R,3R,11bR)-3-isobutyl-9,10-dimethoxy-2,3,4,6,7,11b-hexahydro-1H-pyrido[2,1-a]isoquinolin-2-yl 2-amino-3-methylbutanoate di(4-methylbenzenesulfonate)]
Form conversion in suspension ([6]; 25° C., overnight stirring): did not convert
Form conversion in suspension ([6]; heated to 30° C. for 2 days): conversion to Form I was then complete
Form conversion upon re-slurry ([6]; re-slurry at room temperature in acetonitrile): converts to Form I
Stability with respect to humidity ([1]; GVS): stable with respect to humidity
XRPD pattern following the adsorption/desorption analysis ([1]; di(4-methylbenzenesulfonate)): substantially unchanged
GVS mass lost ([1]; relative humidity decreased between about 40 and 0% RH): 1.8%
GVS mass increase [1, 8]: about 3.4%
GVS mass increase ([1]; relative humidity from about 40% to about 95%): about 1.6%
Form conversion upon heating ([5]; heating at about 230° C.): converts to Form I

COc1cc2c(cc1OC)[C@H]1C[C@@H](OC(=O)[C@@H](N)C(C)C)[C@H](CC(C)C)CN1CC2.Cc1ccc(S(=O)(=O)O)cc1.Cc1ccc(S(=O)(=O)O)cc1 [Form V, (S)-(2R,3R,11bR)-3-isobutyl-9,10-dimethoxy-2,3,4,6,7,11b-hexahydro-1H-pyrido[2,1-a]isoquinolin-2-yl 2-amino-3-methylbutanoate di(4-methylbenzenesulfonate)]
XRPD pattern following the adsorption/desorption analysis ([1]; di(4-methylbenzenesulfonate)): substantially unchanged
GVS mass lost ([1]; relative humidity decreased between about 20 and 0% RH): 1.2%
GVS mass increase ([1]; relative humidity from about 10% to about 95%): about 1%
Form conversion upon heating ([5]; heating between about 110° C. and about 140° C.): converts to Form VI

COc1cc2c(cc1OC)[C@H]1C[C@@H](OC(=O)[C@@H](N)C(C)C)[C@H](CC(C)C)CN1CC2.Cc1ccc(S(=O)(=O)O)cc1.Cc1ccc(S(=O)(=O)O)cc1 [Form VI, (S)-(2R,3R,11bR)-3-isobutyl-9,10-dimethoxy-2,3,4,6,7,11b-hexahydro-1H-pyrido[2,1-a]isoquinolin-2-yl 2-amino-3-methylbutanoate di(4-methylbenzenesulfonate)]
Form conversion upon exposure to gravimetric vapour sorption analysis [1]: converts to Form V
XRPD pattern following the adsorption/desorption analysis ([1]; di(4-methylbenzenesulfonate)): substantially changed
GVS mass lost ([1]; relative humidity decreased between about 15% and 0% RH): 2.0%
GVS mass lost ([1]; relative humidity decreased between about 90% and 15% RH): 1.2%
GVS mass increase [1, 7]: about 3.1%
GVS mass increase ([1]; relative humidity from about 40% to about 80%): about 0.5%
GVS mass increase ([1]; relative humidity from about 80% to about 90%): about 3.1%

Br [hydrobromide]
Stability to humidity GVS uptake [1]: >3.9%

COc1cc2c(cc1OC)C1CC(OC(=O)C(N)C(C)C)C(CC(C)C)CN1CC2.O=C(O)C(=O)O.O=C(O)C(=O)O (stereo not drawn) [oxalate]
Stability to humidity GVS uptake [1]: 0.8%
Stability to humidity 25° C./92% RH ([3]; 25° C./92% RH): unchanged
Stability to humidity 40° C./75% RH ([3]; 40° C./75% RH): unchanged
